Laboratory results published in ChEMBL document CHEMBL4308841, “Synthesis, in vitro antiproliferative activity, and kinase inhibitory effects of pyrazole-containing diarylureas and diarylamides” (Eur J Med Chem, 2018).

How the values were obtained:
K562 = experiment: Growth inhibition of human K562 cells assessed as cell growth at 10 uM incubated for 48 hrs by sulforhodamine B assay relative to control; assay type: functional; conditions: K562, 48 h, read-out: Activity
RPMI-8226 = experiment: Growth inhibition of human RPMI8226 cells assessed as cell growth at 10 uM incubated for 48 hrs by sulforhodamine B assay relative to control; assay type: functional; conditions: RPMI-8226, 48 h, read-out: Activity
HOP-62 = experiment: Growth inhibition of human HOP62 cells assessed as cell growth at 10 uM incubated for 48 hrs by sulforhodamine B assay relative to control; assay type: functional; conditions: HOP-62, 48 h, read-out: Activity
NCI-H23 = experiment: Growth inhibition of human NCI-H23 cells assessed as cell growth at 10 uM incubated for 48 hrs by sulforhodamine B assay relative to control; assay type: functional; conditions: NCI-H23, 48 h, read-out: Activity
COLO 205 = experiment: Growth inhibition of human COLO205 cells assessed as cell growth at 10 uM incubated for 48 hrs by sulforhodamine B assay relative to control; assay type: functional; conditions: COLO 205, 48 h, read-out: Activity
HCT-15 = experiment: Growth inhibition of human HCT15 cells assessed as cell growth at 10 uM incubated for 48 hrs by sulforhodamine B assay relative to control; assay type: functional; conditions: HCT-15, 48 h, read-out: Activity
SW-620 = experiment: Growth inhibition of human SW620 cells assessed as cell growth at 10 uM incubated for 48 hrs by sulforhodamine B assay relative to control; assay type: functional; conditions: SW-620, 48 h, read-out: Activity
SF-268 = experiment: Growth inhibition of human SF268 cells assessed as cell growth at 10 uM incubated for 48 hrs by sulforhodamine B assay relative to control; assay type: functional; conditions: SF-268, 48 h, read-out: Activity
U-251 = experiment: Growth inhibition of human U251 cells assessed as cell growth at 10 uM incubated for 48 hrs by sulforhodamine B assay relative to control; assay type: functional; conditions: U-251, 48 h, read-out: Activity
Malme-3M = experiment: Growth inhibition of human MALME-3M cells assessed as cell growth at 10 uM incubated for 48 hrs by sulforhodamine B assay relative to control; assay type: functional; conditions: read-out: Activity
UACC-62 = experiment: Growth inhibition of human UACC62 cells assessed as cell growth at 10 uM incubated for 48 hrs by sulforhodamine B assay relative to control; assay type: functional; conditions: UACC-62, 48 h, read-out: Activity
IGROV-1 = experiment: Growth inhibition of human IGROV1 cells assessed as cell growth at 10 uM incubated for 48 hrs by sulforhodamine B assay relative to control; assay type: functional; conditions: IGROV-1, 48 h, read-out: Activity
OVCAR-3 [1] = experiment: Growth inhibition of human OVCAR3 cells assessed as cell growth at 10 uM incubated for 48 hrs by sulforhodamine B assay relative to control; assay type: functional; conditions: OVCAR-3, 48 h, read-out: Activity
OVCAR-4 = experiment: Growth inhibition of human OVCAR4 cells assessed as cell growth at 10 uM incubated for 48 hrs by sulforhodamine B assay relative to control; assay type: functional; conditions: OVCAR-4, 48 h, read-out: Activity
OVCAR-8 = experiment: Growth inhibition of human OVCAR8 cells assessed as cell growth at 10 uM incubated for 48 hrs by sulforhodamine B assay relative to control; assay type: functional; conditions: OVCAR-8, 48 h, read-out: Activity
NCI/ADR-RES = experiment: Growth inhibition of human NCI/ADR-RES cells assessed as cell growth at 10 uM incubated for 48 hrs by sulforhodamine B assay relative to control; assay type: functional; conditions: read-out: Activity
SK-OV-3 = experiment: Growth inhibition of human SKOV3 cells assessed as cell growth at 10 uM incubated for 48 hrs by sulforhodamine B assay relative to control; assay type: functional; conditions: SK-OV-3, 48 h, read-out: Activity
SN12C = experiment: Growth inhibition of human SN12C cells assessed as cell growth at 10 uM incubated for 48 hrs by sulforhodamine B assay relative to control; assay type: functional; conditions: read-out: Activity
DU-145 [2] = experiment: Growth inhibition of human DU145 cells assessed as cell growth at 10 uM incubated for 48 hrs by sulforhodamine B assay relative to control; assay type: functional; conditions: DU-145, 48 h, read-out: Activity
MDA-MB-231 = experiment: Growth inhibition of human MDA-MB-231 cells assessed as cell growth at 10 uM incubated for 48 hrs by sulforhodamine B assay relative to control; assay type: functional; conditions: MDA-MB-231, 48 h, read-out: Activity
Hs-578T = experiment: Growth inhibition of human Hs578T cells assessed as cell growth at 10 uM incubated for 48 hrs by sulforhodamine B assay relative to control; assay type: functional; conditions: read-out: Activity
NCI-H226 = experiment: Growth inhibition of human NCI-H226 cells incubated for 48 hrs by sulforhodamine B assay; assay type: functional, cell-based; conditions: NCI-H226, 48 h
CAKI-1 = experiment: Growth inhibition of human Caki1 cells incubated for 48 hrs by sulforhodamine B assay; assay type: functional, cell-based; conditions: CAKI-1, 48 h
DU-145 [3] = experiment: Growth inhibition of human DU145 cells incubated for 48 hrs by sulforhodamine B assay; assay type: functional, cell-based; conditions: DU-145, 48 h
T47D = experiment: Growth inhibition of human T47D cells incubated for 48 hrs by sulforhodamine B assay; assay type: functional, cell-based
SK-MEL-28 = experiment: Growth inhibition of human SK-MEL-28 cells assessed as cell growth at 0.01 uM incubated for 48 hrs by sulforhodamine B assay relative to control; assay type: functional; conditions: SK-MEL-28, 48 h, read-out: Activity
OVCAR-3 [4] = experiment: Growth inhibition of human OVCAR3 cells assessed as cell growth at 0.01 uM incubated for 48 hrs by sulforhodamine B assay relative to control; assay type: functional; conditions: OVCAR-3, 48 h, read-out: Activity
CCRF-CEM = experiment: Growth inhibition of human CCRF-CEM cells assessed as cell growth at 0.1 uM incubated for 48 hrs by sulforhodamine B assay relative to control; assay type: functional; conditions: read-out: Activity
A549 = experiment: Growth inhibition of human A549/ATCC cells assessed as cell growth at 100 uM incubated for 48 hrs by sulforhodamine B assay relative to control; assay type: functional; conditions: A549, 48 h, read-out: Activity
LOX IMVI = experiment: Growth inhibition of human LOXIMVI cells assessed as cell growth at 100 uM incubated for 48 hrs by sulforhodamine B assay relative to control; assay type: functional; conditions: read-out: Activity
DU-145 [5] = experiment: Growth inhibition of human DU145 cells assessed as cell growth at 100 uM incubated for 48 hrs by sulforhodamine B assay relative to control; assay type: functional; conditions: DU-145, 48 h, read-out: Activity
[6] = read-out: LC50 (the source's name)
[7] = read-out: pLC50 (the source's name) (converted)

Molecule `O=C(Nc1cccc(-n2cc(-c3ccncc3)c(-c3cc(O)cc(Cl)c3)n2)c1)c1ccc(N2CCOCC2)c(C(F)(F)F)c1` has a growth at 10 µM (K562) of -15.5%, a growth at 10 µM (RPMI-8226) of -3.77% and a growth at 10 µM (HOP-62) of -2.19%. It also gave a growth at 10 µM (NCI-H23) of 15.4%, a growth at 10 µM (COLO 205) of 80.5% and a growth at 10 µM (HCT-15) of 6.25%. For the same molecule, the growth at 10 µM (SW-620) was -26.2%, the growth at 10 µM (SF-268) was 52.7% and the growth at 10 µM (U-251) was -9.64%. For the same molecule, the growth at 10 µM (Malme-3M) was -26.9%, the growth at 10 µM (UACC-62) was 10.8% and the growth at 10 µM (IGROV-1) was 44.3%. The growth at 10 µM (OVCAR-3 [1]) was 36.4%, the growth at 10 µM (OVCAR-4) was 77.1% and the growth at 10 µM (OVCAR-8) was 22.7%. For the same molecule, the growth at 10 µM (NCI/ADR-RES) was 35%, the growth at 10 µM (SK-OV-3) was 50.7% and the growth at 10 µM (SN12C) was 46.4%. The growth at 10 µM (DU-145 [2]) was 38%, the growth at 10 µM (MDA-MB-231) was -48% and the growth at 10 µM (Hs-578T) was 17.9%. The GI50 (NCI-H226; read-out: GI50) was 2.56 µM, the LC50 (NCI-H226; read-out: LC50) was > 100 µM and the TGI (NCI-H226; read-out: TGI) was > 100 µM. The GI50 (NCI-H226; read-out: pGI50 (converted)) was 28.8 µM, the LC50 (NCI-H226; read-out: pLC50 (converted)) was > 100 µM and the TGI (NCI-H226; read-out: pTGI (converted)) was > 100 µM. For the same molecule, the GI50 (CAKI-1; read-out: GI50) was 1.1 µM, the CC50 (CAKI-1; [6]) was > 100 µM and the TGI (CAKI-1; read-out: TGI) was 60 µM. The GI50 (CAKI-1; read-out: pGI50 (converted)) was 1.1 µM, the CC50 (CAKI-1; [7]) was > 100 µM and the TGI (CAKI-1; read-out: pTGI (converted)) was 6.03 µM. For the same molecule, the GI50 (DU-145 [3]; read-out: GI50) was 5.55 µM, the CC50 (DU-145 [3]; [6]) was > 100 µM and the TGI (DU-145 [3]; read-out: TGI) was > 100 µM. For the same molecule, the GI50 (DU-145 [3]; read-out: pGI50 (converted)) was 5.62 µM, the CC50 (DU-145 [3]; [7]) was > 100 µM and the TGI (DU-145 [3]; read-out: pTGI (converted)) was > 100 µM. For the same molecule, the GI50 (T47D; read-out: GI50) was 3.81 µM, the CC50 (T47D; [6]) was > 100 µM and the TGI (T47D; read-out: TGI) was > 100 µM. For the same molecule, the GI50 (T47D; read-out: pGI50 (converted)) was 3.8 µM, the CC50 (T47D; [7]) was > 100 µM and the TGI (T47D; read-out: pTGI (converted)) was > 100 µM. For the same molecule, the growth at 0.01 µM (SK-MEL-28) was 99%, the growth at 0.01 µM (OVCAR-3 [4]) was 111% and the growth at 0.1 µM (CCRF-CEM) was 95%. It also gave a growth at 100 µM (A549) of -14%, a growth at 100 µM (LOX IMVI) of -45% and a growth at 100 µM (DU-145 [5]) of 13%.

In the case of `COc1cc(Cl)cc(-c2nn(-c3cccc(NC(=O)c4cc(C(F)(F)F)cc(C(F)(F)F)c4)c3)cc2-c2ccncc2)c1`, the growth at 10 µM (K562) is reported as 38%, the growth at 10 µM (RPMI-8226) is reported as 43.6% and the growth at 10 µM (HOP-62) is reported as 103%. For the same molecule, the growth at 10 µM (NCI-H23) was 72.1%, the growth at 10 µM (COLO 205) was 88.7% and the growth at 10 µM (HCT-15) was 58.6%. It also gave a growth at 10 µM (SW-620) of 86.2%, a growth at 10 µM (SF-268) of 89.2% and a growth at 10 µM (U-251) of 60.7%. It also gave a growth at 10 µM (Malme-3M) of 104%, a growth at 10 µM (UACC-62) of 81.4% and a growth at 10 µM (IGROV-1) of 100%. For the same molecule, the growth at 10 µM (OVCAR-3 [1]) was 25.5%, the growth at 10 µM (OVCAR-4) was 72.1% and the growth at 10 µM (OVCAR-8) was 55.4%. For the same molecule, the growth at 10 µM (NCI/ADR-RES) was 67.8%, the growth at 10 µM (SK-OV-3) was 83.4% and the growth at 10 µM (SN12C) was 69.8%. It also gave a growth at 10 µM (DU-145 [2]) of 78.2%, a growth at 10 µM (MDA-MB-231) of 56.7% and a growth at 10 µM (Hs-578T) of 81.1%.
